Measurements reported in patent US7648966B2, “Mannose-6-phosphonate compounds for the treatment of inflammatory diseases” (Pharmaxis Pty Limited, priority 2003, dated 2010).
Values joined by “and” are separate entries in the source; they are usually repeats but may differ in a detail not shown here. Equal entries are not always repeated.

Experiments:
[1] = tested on: passively transferred adjuvant-induced arthritis; test: Passively transferred adjuvant arthritis; assay type: in vivo, DA rats; details: for swelling in the affected joints at the end of the treatment period: controls severe swelling
Procedure: The experiment in this Example was designed to study the effect of the agents of the present invention in vivo on a disease that requires T lymphocyte migration into a specific tissue (synovium). Male DA rats, 8 to 10 week old, were immunized with three 100 μl injections of CFA intradermally at the base of the tail. The CFA was prepared by mixing 8 mg/ml of M. butyricum (Difco Laboratories, USA) that had been ground to a fine powder using a mortar and pestle, in 85% light mineral oil (Sigma, USA) and 15% mannide monooleate (Sigma) and emulsifying this suspension, one part in one part saline. Thus, the final emulsion contained 4 mg/ml of M. butyricum. Ten days after immunization, the rats were euthanized and their spleens removed aseptically. A single cell suspension in lymphocyte culture medium with 10% FCS was prepared as described above and adjusted to a concentration of 2×10^6 cells/ml. Con A was added at a final concentration of 2 μg/ml. The cells were cultured at 37° C. in an atmosphere of 5% carbon dioxide for 72 hours. Groups of 4 or 5 DA rats, 6 to 8 weeks of age were anesthetized with diethyl ether and implanted sc on the flank with Alzet 2002 (“2 week delivery”) or Alzet 2001 (“1 week delivery”) mini-osmotic pumps (Alza Corp., Palo Alto Calif., USA). One treatment group received 1-(2,4,-diimethyl phenyl)-6-phosphono-mannoside in the one week delivery Alzet 2001 mini-osmotic pumps. The drug was delivered at a dose of 25 mg/kg/day. The control group for this experiment received identical mini-osmotic pumps containing normal saline. In a second experiment another group of DA rats received 1-(2,4,-diimethyl phenyl)-6-phosphono-mannoside in the “2 week delivery” Alzet 2002 mini-osmotic pumps. This drug was delivered at a dose of 37 mg/kg/day. Control animals for this group received saline delivered in identical mini-osmotic pumps. While the animals were recovering from anesthesia, the above cultured lymphocytes which had been harvested and washed twice in HBSS were resuspended in normal saline and injected iv (lateral tai vein) into recipient rats, each of which received 75-90×10^6 cells in 0.5 ml. After 5 to 8 days, a characteristic thickening and cutaneous hyperemia of the distal joints of the hind legs became clinically apparent in saline treated control animals. Disease severity was evaluated and graded in each group by daily measurement of the mediolateral widths of both ankle joints. The data were expressed as the mean of the change (compared with width prior to cell injection) in mediolateral ankle width expressed in millimeters (±standard error of the mean).

[2] = tested on: passively transferred EAE; test: Passively transferred experimental autoimmune encephalomyelitis (EAE); assay type: in vivo, Lewis rats; details: for Clinical Scores (individual rats): 45 mg/kg/day by mini-osmotic pump; for Clinical Scores (individual rats) / Mean Score: scale 0 to 5
Procedure: To study the effect of the present agents in vivo on a disease that includes in its pathogenesis the migration of T lymphocytes into a specific tissue, the brain, experiments were performed in the Lewis rat model of passively transferred EAE. MBP-specific T lymphocyte cell lines were generated from the draining LNs of Lewis rats that had been immunized with MBP in CFA essentially according to the method of Ben-Nun et al., 1981, supra. Donor T lymphocytes were generated from female 10 to 12 week old Lewis rats weighing 150 to 200 g. These rats had been injected intradermally in each hind footpad with an emulsion of guinea pig MBP (gpMBP) prepared according to Deibler, G E et al., […]. Biochem. 2:139-165 (1972), incorporated herein by reference) in CFA ([…]). The adjuvant emulsion was prepared by emulsifying equal volumes of a mixture of light mineral oil (Sigma) and a solution of the gpMBP in normal saline (0.5 mg/ml) and Mycobacterium butyricum (4 mg/ml; Difco). Thus, each rat received was 50 μg of MBP and 400 μg of M. butyricum. Approximately 11 days following injection the rats were euthanized and the draining LNs (popliteal and inguinal) were removed aseptically by blunt dissection and placed into lymphocyte culture medium as described above. A single cell suspension was prepared from the LNs as described above for spleen. The cells were washed twice in culture medium and any red blood cells were lysed with ammonium chloride as above. These cells, at concentration of 5×10^6/ml were cultured for 72 hours in the presence of MBP (0.06 mg/ml) at 37° C. in a humidified atmosphere containing 7.5% carbon dioxide. The cells were collected and the lymphoblasts were isolated by centrifugation on a Ficoll (Pharmacia, Uppsala, Sweden) gradient in an identical manner to that described by Ben Nun et al. supra. The fraction containing 90% lymphoblasts was cultured further in complete DMEM to which was added (15% v/v) a culture supernatant containing a mixture of growth factors (supernatant of concanavalin A-stimulated lymphocytes), 10% fetal calf serum, nonessential amino acids (Bio-Lab, Jerusalem, Israel). No antigen (MBP) was added. The cells were originally plated in 100 mm petri dishes at a concentration of 2×10^5 cells/mil and replated every 3 or 4 days. Prior to transfer into Lewis rat recipients, the cells were restimulated with antigen, MBP (0.01 mg/ml), and irradiated syngeneic thymocytes, as antigen-presenting cells, for 4 days. These cultured, stimulated T lymphocytes were highly encephalitogenic: as few as 5×10^5 cells could induced disease in naïve Lewis rats. In a typical experiment, a group of 5 female Lewis rats, approximately 9 weeks old, weighing 110±15 grams was anesthetized with diethyl ether and implanted with mini-osmotic pumps (Alzet 2002, Alza Corp., Palo Alto Calif., USA) containing 1-(2,4,-diimethyl phenyl)-6-phosphono-mannoside dissolved in normal saline at a concentration that delivered the drug at a rate of 45 mg/kg/day. A second group of 5 control animals were implanted under anesthesia with a similar pump containing normal saline. Just prior to recovering from the anesthetic, each animal received 5×10^5 cells of the above encephalitogenic T cell line iv in 0.2 ml of normal saline. […] The severity of EAE for each group of rats was calculated as a Disease Index (DI) which is (for those animals developing disease): [formula] This calculation allows a more complete assessment of the disease by incorporating both speed of onset and clinical severity and duration of the disease. […] In an identically designed experiment, rats were sacrificed on day 6 after T lymphocyte transfer and their spinal cords were harvested for histological assessment. Rats were deeply anesthetized (Nembutal) and perfused with 30 ml saline followed by 60 ml 10% neutral buffered formalin. Spinal cords were removed, fixed for 7 days in 10% formalin and embedded for sectioning. […]

[3] = 45 mg/kg/day, vs saline controls

## Cc1ccc(O[C@H]2O[C@H](CCP(=O)(O)O)[C@@H](O)[C@H](O)[C@@H]2O)c(C)c1
[1]; 25 mg/kg/day, end of one week treatment
  difference in disease status of treated versus control animals: highly statistically significant difference
[1]; 25 mg/kg/day, one week delivery Alzet 2001 pump
  swelling in the affected joints at the end of the treatment period: little swelling
[1]; 37 mg/kg/day, end of two week treatment
  difference in disease status of treated versus control animals: highly statistically significant difference
[1]; 37 mg/kg/day, two week delivery Alzet 2002 pump
  swelling in the affected joints at the end of the treatment period: little swelling
[2]; 45 mg/kg/day, control 5/5
  animals that developed disease: 3/5
[2]; 45 mg/kg/day, control group DI 160
  DI = Group Disease Index: 40
[2]; 45 mg/kg/day, controls two consecutive days
  duration of maximum clinical scores: none of the 3 drug treated animals that developed symptoms had maximum clinical scores for more than one day
[2]; [3]
  disease onset: disease onset was delayed
  disease severity: disease severity was lower than that observed in the controls
[2]; Day 4
  Clinical Scores (individual rats): 0
[2]; Day 4, 45 mg/kg/day
  Mean Score: 0
[2]; Day 5, listed as 1-(2,4,-dimethyl phenyl)-6-phosphono-mannoside, 45 mg/kg/day
  Clinical Scores (individual rats): 1 (3×) and 0 (2×)
[2]; Day 5, 45 mg/kg/day
  Mean Score: 0.6
[2]; Day 6, listed as 1-(2,4,-dimethyl phenyl)-6-phosphono-mannoside, 45 mg/kg/day
  Clinical Scores (individual rats): 2 (2×) and 0 (2×) and 1
[2]; Day 6, 45 mg/kg/day
  Mean Score: 1
[2]; Day 7, listed as 1-(2,4,-dimethyl phenyl)-6-phosphono-mannoside, 45 mg/kg/day
  Clinical Scores (individual rats): 0 (3×) and 1 (2×)
[2]; Day 7, 45 mg/kg/day
  Mean Score: 0.4
[2]; day 6 after T lymphocyte transfer, histology
  lesions/section in the most affected animal: no more than 8 lesions/section
[2]; day 6 after T lymphocyte transfer, histology, control approximately 15 lesions/section
  average number of spinal cord lesions: 3.5 lesions
